Measured values published in US20100179058A1, “Azolylmethyloxiranes, Their Use for Controlling Phytopathogenic Fungi, and Compositions Comprising Them” (BASF SE, priority 2006, published 2010).

Columns and labels:
Botrytis cinerea = test: Activity against gray mold on bell pepper leaves caused by Botrytis cinerea, 1 day protective application (Botrci P1), greenhouse; format: in vivo; conditions: bell pepper seedlings, comparative experiment, untreated 100
Experimental: The active compounds were prepared separately or jointly as a stock solution comprising 25 mg of active compound which was made up to 10 ml using a mixture of acetone and/or DMSO and the emulsifier Wettol EM 31 (wetting agent having emulsifying and dispersing action based on ethoxylated alkylphenol) in a volume ratio of solvent/emulsifier of 99:1. The mixture was then made up to 100 ml with water. This stock solution was diluted with the solvent/emulsifier/water mixture described to give the concentration of active compound stated below. Bell pepper seedlings were, after 2-3 leaves were well developed, sprayed to runoff point with an aqueous suspension having the active compound concentration stated below. The next day, the treated plants were inoculated with a spore suspension of Botrytis cinerea in a 2% strength biomalt solution. The test plants were then placed in a dark climatized chamber at 22 to 24° C., and high atmospheric humidity. After 5 days, the extent of the fungal infection on the leaves could be determined visually in %.

Alternaria solani [1] = test: Activity against early blight of tomato caused by Alternaria solani (Alteso P1), greenhouse; format: in vivo; conditions: tomato plants, comparative experiment, untreated 90
Experimental: The active compounds were prepared separately or jointly as a stock solution comprising 25 mg of active compound which was made up to 10 ml using a mixture of acetone and/or DMSO and the emulsifier Wettol EM 31 (wetting agent having emulsifying and dispersing action based on ethoxylated alkylphenol) in a volume ratio of solvent/emulsifier of 99:1. The mixture was then made up to 100 ml with water. This stock solution was diluted with the solvent/emulsifier/water mixture described to give the concentration of active compound stated below. Leaves of potted tomato plants were sprayed to runoff point with an aqueous suspension having the active compound concentration stated below. The next day, the leaves were inoculated with an aqueous spore suspension of Alternaria solani in a 2% strength biomalt solution. The plants were then placed in a water vapor-saturated chamber at temperatures between 20 and 22° C. After 5 days, the disease on the untreated but infected control plants had developed to such an extent that the infection could be determined visually in %. […]

Alternaria solani [2] = test: Activity against Alternaria solani early blight pathogen in the microtiter test (Alteso); format: cell-based; conditions: 125 ppm active compound, microtiter plate, 405 nm, day 7 after inoculation
Experimental: (§1) The active compounds were formulated separately as a stock solution having a concentration of […] in DMSO. The stock solution is pipetted onto a microtiter plate (MTP) and diluted to the stated active compound concentration using a malt-based aqueous nutrient medium for fungi. An aqueous spore suspension of Alternaria solani was then added. The plates were placed in a water vapor-saturated chamber at temperatures of 18° C. Using an absorbtion photometer, the MTPs were measured at 405 nm on day 7 after the inoculation. The measured parameters were compared to the growth of the active compound-free control variant and the fungus- and active compound-free blank value to determine the relative growth in % of the pathogens in the individual active compounds.

Septoria tritici = test: Activity against the Septoria leaf blotch pathogen Septoria tritici in the microtiter test (Septtr); format: cell-based; conditions: 125 ppm active compound, microtiter plate, 405 nm, day 7 after inoculation
Experimental: as §1, with “Septoria tritici” for “Alternaria solani”

Structure (SMILES)	Infection in % at 63 ppm for Botrci P1 (Botrytis cinerea) [%]	Infection in % at 63 ppm for Alteso P1 (Alternaria solani [1]) [%]	growth (relative growth in % of the pathogens) (Alternaria solani [2]) [%]	growth (relative growth in % of the pathogens) (Septoria tritici) [%]
Fc1ccc(C2(Cn3cncn3)OC2c2ccccc2Cl)c(F)c1 (racemic) [8.12]	30	10	–	–
Fc1ccccc1C1(Cn2cncn2)OC1c1ccccc1Cl (stereo not drawn) [Comp. No. 6 of EP-A 0196038, reference compound]	100	90	–	–
Cc1cccc(C2OC2(Cn2cncn2)c2ccc(F)cc2F)c1 (stereo not drawn) [8.8]	–	–	0	0
